We go through 29 compounds from patent US8735406B2, “8-oxodihydropurine derivative” (Dainippon Sumitomo Pharma Co., Ltd., priority 2009, dated 2014).

This assay deals with T1, FAAH (Rattus norvegicus, UniProt P97612).
T1 construct: Preparation of Rat Brain Membranes Preparations (FAAH Enzyme Solution); from tissue; host or cells: rat cerebrum (brain membrane preparation)
T1 sequence (P97612 1-579): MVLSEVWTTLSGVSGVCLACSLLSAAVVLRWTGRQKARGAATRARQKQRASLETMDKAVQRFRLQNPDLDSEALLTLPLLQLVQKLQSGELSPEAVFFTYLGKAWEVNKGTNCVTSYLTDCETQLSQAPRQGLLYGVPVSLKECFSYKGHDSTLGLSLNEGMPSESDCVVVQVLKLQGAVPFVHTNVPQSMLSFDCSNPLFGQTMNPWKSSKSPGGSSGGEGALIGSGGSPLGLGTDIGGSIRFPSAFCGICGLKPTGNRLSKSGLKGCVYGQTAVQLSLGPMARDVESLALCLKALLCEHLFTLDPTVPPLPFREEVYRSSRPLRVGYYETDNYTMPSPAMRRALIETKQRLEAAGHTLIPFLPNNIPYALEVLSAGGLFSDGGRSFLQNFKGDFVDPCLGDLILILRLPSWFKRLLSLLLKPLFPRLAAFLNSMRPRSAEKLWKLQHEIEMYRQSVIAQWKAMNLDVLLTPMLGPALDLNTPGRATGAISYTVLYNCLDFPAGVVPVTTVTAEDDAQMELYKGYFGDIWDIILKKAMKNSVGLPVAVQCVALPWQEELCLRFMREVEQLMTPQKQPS
Kind of assay: Determination of FAAH inhibitory activity in rat (rat brain membrane preparations, [3H]-anandamide hydrolysis). In kind it is biochemical. As to conditions: rat brain membrane preparations; for inhibition at 0.1 µM: 100 nM test substance, read-out: FAAH Inhibition, Inhibition Rate at 100 nM; for IC50: test substance 0.1 nM to 1 μM, read-out: FAAH Inhibition IC50. The method, boiled down: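 Rat cerebrum membranes (100 μg/mL protein) preincubated 10 min at 37 °C with compound (1% DMSO) in pH 7.6 Tris buffer with 1.5% BSA. Substrate 2 nM [3H]-anandamide plus 2 μM anandamide added for 10 min at 37 °C. [3H]-ethanolamine in the aqueous phase after chloroform/methanol extraction was scintillation counted; IC50 over 0.1 nM–1 μM.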

Take `COCc1ncc2c(n1)n(C)c(=O)n2C(=O)N1CC(c2cccc(F)c2)C1` [Example 440, 7-{[3-(3-Fluorophenyl)azetidin-1-yl]carbonyl}-2-(methoxymethyl)-9-methyl-7,9-dihydro-8H-purine-8-one]: the inhibition at 0.1 µM came out at 88% and the IC50 was determined as 21 nM. On to `COCc1ncc2c(n1)n(C)c(=O)n2C(=O)N1CC(c2ccccc2F)C1` [Example 441, 7-{[3-(2-Fluorophenyl)azetidin-1-yl]carbonyl}-2-(methoxymethyl)-9-methyl-7,9-dihydro-8H-purine-8-one], for which the inhibition at 0.1 µM came to 74% and the IC50 was determined as 37 nM.

Take `COCc1ncc2c(n1)n(C)c(=O)n2C(=O)N1CC(c2cccc(C(F)(F)F)c2)C1` [Example 443, 2-(Methoxymethyl)-9-methyl-7-({[3-(3-trifluoromethyl)phenyl]azetidin-1-yl}carbonyl)-7,9-dihydro-8H-purine-8-one]: the inhibition at 0.1 µM came out at 98% and the IC50 was determined as 7 nM. `COCc1ncc2c(n1)n(C)c(=O)n2C(=O)N1CC(c2ccccc2Cl)C1` [Example 453, 7-{[3-(2-Chlorophenyl)azetidin-1-yl]carbonyl}-2-(methoxymethyl)-9-methyl-7,9-dihydro-8H-purine-8-one]: the inhibition at 0.1 µM worked out at 90% and the IC50 turned out to be 12 nM.

Take `COCc1ncc2c(n1)n(C)c(=O)n2C(=O)N1CC(c2ccc(F)cc2F)C1` [Example 454, 7-{[3-(2,4-Difluorophenyl)azetidin-1-yl]carbonyl}-2-(methoxymethyl)-9-methyl-7,9-dihydro-8H-purine-8-one]: the inhibition at 0.1 µM is 89% and the IC50 came out at 6 nM. On the same counts, the results for `COCc1ncc2c(n1)n(C)c(=O)n2C(=O)N1CC(c2ccc(F)c(C)c2)C1` [Example 455, 7-{[3-(4-Fluoro-3-methylphenyl)azetidin-1-yl]carbonyl}-2-(methoxymethyl)-9-methyl-7,9-dihydro-8H-purine-8-one] are 104% and 1 nM. As to `COCc1ncc2c(n1)n(C)c(=O)n2C(=O)N1CC(c2ccc(OCc3ccccc3)cc2)C1` [Example 456, 7-({3-[4-(Benzyloxy)phenyl]azetidin-1-yl}carbonyl)-2-(methoxymethyl)-9-methyl-7,9-dihydro-8H-purine-8-one], the inhibition at 0.1 µM stood at 99% and the IC50 is 1 nM. Consider `COCc1ncc2c(n1)n(C)c(=O)n2C(=O)N1CC(c2ccc(OC(F)(F)F)cc2)C1` [Example 458, 2-(Methoxymethyl)-9-methyl-7-({3-[4-(trifluoromethoxy)phenyl]azetidin-1-yl}carbonyl)-7,9-dihydro-8H-purine-8-one], for which the inhibition at 0.1 µM was found to be 120% and the IC50 was found to be 1 nM.

Take `COCc1ncc2c(n1)n(C)c(=O)n2C(=O)N1CC(c2cccc(OC)c2)C1` [Example 459, 2-(Methoxymethyl)-7-{[3-(3-methoxyphenyl)azetidin-1-yl]carbonyl}-9-methyl-7,9-dihydro-8H-purine-8-one]: the inhibition at 0.1 µM was found to be 108% and the IC50 stood at 9 nM. On to `CCOCc1ncc2c(n1)n(C)c(=O)n2C(=O)N1CC(c2ccccc2)C1` [Example 460, 2-(Ethoxymethyl)-9-methyl-7-[(3-phenylazetidin-1-yl)carbonyl]-7,9-dihydro-8H-purine-8-one], for which the inhibition at 0.1 µM came out at 108% and the concentration for half-maximal inhibition (IC50) was determined as 11 nM. Take `CCOCc1ncc2c(n1)n(C)c(=O)n2C(=O)N1CC(c2cccc(F)c2)C1` [Example 462, 2-(Ethoxymethyl)-7-{[3-(3-fluorophenyl)azetidin-1-yl]carbonyl}-9-methyl-7,9-dihydro-8H-purine-8-one]: the inhibition at 0.1 µM came to 113% and the IC50 stood at 10 nM. On to `CCOCc1ncc2c(n1)n(C)c(=O)n2C(=O)N1CC(c2ccc(OCC)cc2)C1` [Example 463, 2-(Ethoxymethyl)-7-{[3-(4-ethoxyphenyl)azetidin-1-yl]carbonyl}-9-methyl-7,9-dihydro-8H-purine-8-one], for which the inhibition at 0.1 µM was found to be 136% and the IC50 was 10 nM.

For `CCOCc1ncc2c(n1)n(C)c(=O)n2C(=O)N1CC(c2ccccc2F)C1` [Example 465, 2-(Ethoxymethyl)-7-{[3-(2-fluorophenyl)azetidin-1-yl]carbonyl}-9-methyl-7,9-dihydro-8H-purine-8-one], the inhibition at 0.1 µM was 96% and the IC50 was found to be 10 nM.

Turning to `COCc1ncc2c(n1)n(C)c(=O)n2C(=O)N1CC[C@@H](Oc2ccccc2F)C1` [Example 474], the inhibition at 0.1 µM was 71% and the IC50 amounted to 54 nM.

As for `COCc1ncc2c(n1)n(C)c(=O)n2C(=O)N1CC[C@@H](Oc2cccc(C)c2)C1` [Example 475], the inhibition at 0.1 µM was found to be 46%. With `COCc1ncc2c(n1)n(C)c(=O)n2C(=O)N1CC[C@@H](Oc2ccccc2C)C1` [Example 476], the inhibition at 0.1 µM turned out to be 76% and the IC50 turned out to be 57 nM. For `COCc1ncc2c(n1)n(C)c(=O)n2C(=O)N1CC[C@H](Oc2ccccc2)C1` [Example 477] the same measures were 88% and 26 nM. For `COCc1ncc2c(n1)n(C)c(=O)n2C(=O)N1CC(Oc2ccccc2C)C1` [Example 478] the same measures were 46% and 118 nM. For the compound `COCc1ncc2c(n1)n(C)c(=O)n2C(=O)N1CC(Oc2ccccc2F)C1` [Example 479, 7-{[3-(2-Fluorophenoxy)azetidin-1-yl]carbonyl}-2-(methoxymethyl)-9-methyl-7,9-dihydro-8H-purine-8-one], the inhibition at 0.1 µM is 50% and the IC50 worked out at 101 nM.

Consider `COCc1ncc2c(n1)n(C)c(=O)n2C(=O)N1CC[C@@H](Oc2ccc(F)cc2)C1` [Example 480, 7-{[(3R)-3-(4-Fluorophenoxy)pyrrolidin-1-yl]carbonyl}-2-(methoxymethyl)-9-methyl-7,9-dihydro-8H-purine-8-one], for which the inhibition at 0.1 µM came out at 88% and the IC50 came to 83 nM. `COCc1ncc2c(n1)n(C)c(=O)n2C(=O)N1CC[C@H](Oc2ccc(F)cc2)C1` [Example 481]: the inhibition at 0.1 µM is 102% and the IC50 is 3 nM. As to `COCc1ncc2c(n1)n(C)c(=O)n2C(=O)N1CC[C@H](Oc2cccc(F)c2)C1` [Example 482, 7-{[(3S)-3-(3-Fluorophenoxy)pyrrolidin-1-yl]carbonyl}-2-(methoxymethyl)-9-methyl-7,9-dihydro-8H-purine-8-one], the inhibition at 0.1 µM is 104% and the IC50 is 10 nM.

In the case of `COCc1ncc2c(n1)n(C)c(=O)n2C(=O)N1CC[C@H](Oc2ccccc2F)C1` [Example 483, 7-{[(3S)-3-(2-Fluorophenoxy)pyrrolidin-1-yl]carbonyl}-2-(methoxymethyl)-9-methyl-7,9-dihydro-8H-purine-8-one], the inhibition at 0.1 µM turned out to be 110% and the IC50 came out at 10 nM.

For `COCc1ncc2c(n1)n(C)c(=O)n2C(=O)N1CC[C@H](Oc2ccc(C)cc2)C1` [Example 484, 2-(Methoxymethyl)-9-methyl-7-{[(3S)-3-(4-methylphenoxy)pyrrolidin-1-yl]carbonyl}-7,9-dihydro-8H-purine-8-one], the inhibition at 0.1 µM is 86% and the IC50 came out at 9 nM.

Take `COCc1ncc2c(n1)n(C)c(=O)n2C(=O)N1CC[C@H](Oc2cccc(C)c2)C1` [Example 485, 2-(Methoxymethyl)-9-methyl-7-{[(3S)-3-(3-methylphenoxy)pyrrolidin-1-yl]carbonyl}-7,9-dihydro-8H-purine-8-one]: the inhibition at 0.1 µM was found to be 112% and the IC50 is 3 nM. In the case of `COCc1ncc2c(n1)n(C)c(=O)n2C(=O)N1CC[C@H](Oc2ccccc2C)C1` [Example 486, 2-(Methoxymethyl)-9-methyl-7-{[(3S)-3-(2-methylphenoxy)pyrrolidin-1-yl]carbonyl}-7,9-dihydro-8H-purine-8-one], the inhibition at 0.1 µM is 113% and the IC50 came to 2 nM.

Consider `COCc1ncc2c(n1)n(C)c(=O)n2C(=O)N1CC[C@@H](Oc2cccc(Cl)c2)C1` [Example 487, 7-{[(3R)-3-(3-Chlorophenoxy)pyrrolidin-1-yl]carbonyl}-2-(methoxymethyl)-9-methyl-7,9-dihydro-8H-purine-8-one], for which the inhibition at 0.1 µM was 99% and the IC50 amounted to 15 nM.

Take `COCc1ncc2c(n1)n(C)c(=O)n2C(=O)N1CC[C@@H](Oc2ccccc2)C1` [Example 488, 2-(Methoxymethyl)-9-methyl-7-{[(3R)-3-phenoxypyrrolidin-1-yl]carbonyl}-7,9-dihydro-8H-purine-8-one]: the inhibition at 0.1 µM came out at 74% and the IC50 is 43 nM.

With `COCc1ncc2c(n1)n(C)c(=O)n2C(=O)N1CC[C@H](Oc2ccc(Cl)cc2)C1` [Example 489, 7-{[(3S)-3-(4-Chlorophenoxy)pyrrolidin-1-yl]carbonyl}-2-(methoxymethyl)-9-methyl-7,9-dihydro-8H-purine-8-one], the inhibition at 0.1 µM turned out to be 98% and the IC50 was found to be 1 nM.

Usually inhibition stands for the relative decrease from the control value, in per cent. Broadly, the IC50 is the concentration at which inhibition is half-maximal.
